Calls of active or inactive are those of the source.
Legend:
[1] = biological target: DNA dC->dU-editing enzyme APOBEC-3A (Homo sapiens, UniProt P31941); test: Dose Response confirmation of small molecule APOBEC3A DNA Deaminase Inhibitors via a fluorescence-based single-stranded DNA deaminase assay. [Related pubchem assays (depositor defined):AID493011, AID493024]; assay type: functional
[2] = biological target: DNA dC->dU-editing enzyme APOBEC-3G (Homo sapiens, UniProt Q9HC16); assay type: functional;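 also: Dose-response counterscreen measuring inhibition of APOBEC3G DNA deaminase activity, run while confirming APOBEC3A inhibitors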
Sequence of DNA dC->dU-editing enzyme APOBEC-3G (Q9HC16 whole entry): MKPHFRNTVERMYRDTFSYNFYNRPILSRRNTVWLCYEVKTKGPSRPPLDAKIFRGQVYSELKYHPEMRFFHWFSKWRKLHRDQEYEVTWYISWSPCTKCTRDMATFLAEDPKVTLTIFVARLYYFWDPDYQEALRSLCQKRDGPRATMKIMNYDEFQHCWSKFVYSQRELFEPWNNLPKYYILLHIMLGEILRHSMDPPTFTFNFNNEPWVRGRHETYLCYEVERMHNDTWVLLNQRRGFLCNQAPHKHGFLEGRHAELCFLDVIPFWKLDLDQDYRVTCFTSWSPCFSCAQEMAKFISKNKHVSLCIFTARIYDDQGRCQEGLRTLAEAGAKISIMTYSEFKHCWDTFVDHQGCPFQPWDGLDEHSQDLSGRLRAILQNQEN

[3] = Vero E6 cell cytotoxicity, dose response, cytotoxicity control for non-replicating M. tuberculosis project, secondary assay (AID 492998); assay type: functional, VeroE6; details: Vero C1008
Vero = test: cells; assay type: functional; details: Chlorocebus sabaeus
[4] = THP-1 cell cytotoxicity, dose response, cytotoxicity control for non-replicating M. tuberculosis project (AID 489025); assay type: functional
[5] = HepG2 cell cytotoxicity, dose response, cytotoxicity control for non-replicating M. tuberculosis project (AID 489018); assay type: functional; details: Mycobacterium tuberculosis
Large T antigen = Large T antigen (Simian virus 40, UniProt P03070); assay type: functional, Betapolyomavirus macacae;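 also: Confirmatory-stage PubChem screen for compounds that inhibit SV40 T antigen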
Sequence of Large T antigen (P03070 whole entry): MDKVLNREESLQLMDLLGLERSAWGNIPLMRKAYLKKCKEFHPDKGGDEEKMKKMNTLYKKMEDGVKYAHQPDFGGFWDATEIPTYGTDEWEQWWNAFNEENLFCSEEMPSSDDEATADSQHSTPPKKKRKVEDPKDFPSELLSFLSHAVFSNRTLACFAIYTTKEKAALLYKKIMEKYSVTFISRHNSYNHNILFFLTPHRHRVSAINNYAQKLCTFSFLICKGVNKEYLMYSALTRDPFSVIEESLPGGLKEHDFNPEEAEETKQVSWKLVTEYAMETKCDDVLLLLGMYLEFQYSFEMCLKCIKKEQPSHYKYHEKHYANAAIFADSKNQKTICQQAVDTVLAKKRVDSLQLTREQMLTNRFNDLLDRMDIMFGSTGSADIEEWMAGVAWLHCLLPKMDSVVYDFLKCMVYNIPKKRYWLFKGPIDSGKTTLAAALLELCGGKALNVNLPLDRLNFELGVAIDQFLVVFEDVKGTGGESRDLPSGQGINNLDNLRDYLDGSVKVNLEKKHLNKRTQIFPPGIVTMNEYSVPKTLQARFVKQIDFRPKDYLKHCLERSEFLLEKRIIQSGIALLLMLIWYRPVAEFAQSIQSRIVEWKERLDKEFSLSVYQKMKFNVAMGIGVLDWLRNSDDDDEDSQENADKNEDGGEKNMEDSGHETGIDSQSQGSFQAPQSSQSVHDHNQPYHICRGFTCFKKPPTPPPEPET

[6] = biological target: G-protein coupled receptor 55 (Homo sapiens, UniProt Q9Y2T6); test: selective activators of receptor GPR55 – imaging, U2OS cells, beta-arrestin-GFP redistribution, primary screen (AID 1961); assay type: functional
Sequence of G-protein coupled receptor 55 (Q9Y2T6 whole entry): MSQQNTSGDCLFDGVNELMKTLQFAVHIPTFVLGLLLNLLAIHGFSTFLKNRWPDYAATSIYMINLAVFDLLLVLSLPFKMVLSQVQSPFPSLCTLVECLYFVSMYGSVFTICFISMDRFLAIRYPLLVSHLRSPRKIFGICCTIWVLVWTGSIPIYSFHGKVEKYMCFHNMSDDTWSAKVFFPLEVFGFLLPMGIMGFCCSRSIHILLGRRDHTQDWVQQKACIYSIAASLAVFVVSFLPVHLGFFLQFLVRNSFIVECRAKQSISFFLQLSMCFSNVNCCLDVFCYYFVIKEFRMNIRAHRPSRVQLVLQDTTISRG

Streptococcus = test: GAS UMAA2166 growth inhibition – luminescence, BacTiterGlo, counter-screen for streptokinase expression inhibitor project, dose response (AID 1915); assay type: functional, organism-based;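 also: potency for reduction of bacterial viability or growth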
Protein RecA = biological target: T1, Protein RecA (Mycobacterium tuberculosis, UniProt P9WHJ3); test: Fluorescence Cell-Free Homogeneous Dose Retest to Identify Inhibitors of RecA-Intein Splicing Activity. [Related pubchem assays (depositor defined):AID2097, AID2223, AID489010, AID492950]; assay type: functional
T1 sequence (P9WHJ3 whole entry): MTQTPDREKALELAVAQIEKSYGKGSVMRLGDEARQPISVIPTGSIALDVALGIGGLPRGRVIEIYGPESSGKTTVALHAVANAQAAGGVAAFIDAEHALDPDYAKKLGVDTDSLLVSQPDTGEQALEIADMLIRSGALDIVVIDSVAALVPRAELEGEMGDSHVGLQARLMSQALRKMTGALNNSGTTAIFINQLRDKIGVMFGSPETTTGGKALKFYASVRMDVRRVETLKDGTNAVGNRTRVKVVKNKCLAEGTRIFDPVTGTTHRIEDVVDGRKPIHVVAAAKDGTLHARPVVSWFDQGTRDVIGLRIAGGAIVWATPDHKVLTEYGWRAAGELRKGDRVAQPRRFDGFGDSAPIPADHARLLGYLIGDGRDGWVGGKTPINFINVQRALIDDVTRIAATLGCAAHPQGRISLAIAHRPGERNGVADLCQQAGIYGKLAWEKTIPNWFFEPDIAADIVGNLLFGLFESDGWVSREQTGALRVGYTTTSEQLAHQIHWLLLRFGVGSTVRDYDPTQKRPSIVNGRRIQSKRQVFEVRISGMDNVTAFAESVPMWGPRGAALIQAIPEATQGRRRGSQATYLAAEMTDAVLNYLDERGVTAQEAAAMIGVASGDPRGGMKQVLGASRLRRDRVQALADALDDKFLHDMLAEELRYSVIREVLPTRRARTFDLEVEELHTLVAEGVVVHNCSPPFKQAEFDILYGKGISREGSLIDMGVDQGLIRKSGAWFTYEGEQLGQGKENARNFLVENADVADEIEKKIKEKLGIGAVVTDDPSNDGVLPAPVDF

[7] = biological target: T2, Replicative DNA helicase DnaB (Mycobacterium tuberculosis, UniProt P9WMR3); test: DnaB intein splicing inhibitors, dose response, biochemical, cell-free fluorescence (AID 449749); assay type: functional
T2 sequence (P9WMR3 whole entry): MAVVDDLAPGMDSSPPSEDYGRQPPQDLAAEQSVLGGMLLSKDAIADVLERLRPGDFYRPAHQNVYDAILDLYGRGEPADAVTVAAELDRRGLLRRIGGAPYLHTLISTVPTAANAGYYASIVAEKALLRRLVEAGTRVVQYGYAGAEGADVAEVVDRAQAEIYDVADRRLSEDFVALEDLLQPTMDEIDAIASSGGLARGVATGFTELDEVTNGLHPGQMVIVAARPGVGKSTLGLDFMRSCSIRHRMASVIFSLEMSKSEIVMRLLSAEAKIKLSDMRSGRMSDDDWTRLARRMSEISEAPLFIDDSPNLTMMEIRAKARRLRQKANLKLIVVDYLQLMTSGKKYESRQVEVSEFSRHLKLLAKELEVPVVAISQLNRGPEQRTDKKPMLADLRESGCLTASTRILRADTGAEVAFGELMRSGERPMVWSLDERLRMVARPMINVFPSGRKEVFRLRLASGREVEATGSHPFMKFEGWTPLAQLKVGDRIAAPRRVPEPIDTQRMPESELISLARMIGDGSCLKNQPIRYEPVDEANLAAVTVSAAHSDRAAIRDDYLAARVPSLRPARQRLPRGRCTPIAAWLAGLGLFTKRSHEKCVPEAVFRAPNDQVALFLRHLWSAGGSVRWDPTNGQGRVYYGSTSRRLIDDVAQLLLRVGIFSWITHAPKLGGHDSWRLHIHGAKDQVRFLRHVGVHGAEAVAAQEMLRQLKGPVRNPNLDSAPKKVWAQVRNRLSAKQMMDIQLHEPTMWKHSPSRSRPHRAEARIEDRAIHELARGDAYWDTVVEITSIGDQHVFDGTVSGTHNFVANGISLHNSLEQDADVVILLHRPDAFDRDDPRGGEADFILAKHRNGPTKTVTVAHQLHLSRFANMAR

Streptokinase A = biological target: T3, Streptokinase A (Streptococcus pyogenes serotype M1, UniProt P10520); test: viability-normalized secreted streptokinase activity reduction – plasminogen activation absorbance, OD405, dose response (AID 1914); assay type: functional, Streptococcus pyogenes M1 GAS;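 also: secreted streptokinase activity via plasminogen activation per viability signal from cell pellet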
T3 sequence (P10520 whole entry): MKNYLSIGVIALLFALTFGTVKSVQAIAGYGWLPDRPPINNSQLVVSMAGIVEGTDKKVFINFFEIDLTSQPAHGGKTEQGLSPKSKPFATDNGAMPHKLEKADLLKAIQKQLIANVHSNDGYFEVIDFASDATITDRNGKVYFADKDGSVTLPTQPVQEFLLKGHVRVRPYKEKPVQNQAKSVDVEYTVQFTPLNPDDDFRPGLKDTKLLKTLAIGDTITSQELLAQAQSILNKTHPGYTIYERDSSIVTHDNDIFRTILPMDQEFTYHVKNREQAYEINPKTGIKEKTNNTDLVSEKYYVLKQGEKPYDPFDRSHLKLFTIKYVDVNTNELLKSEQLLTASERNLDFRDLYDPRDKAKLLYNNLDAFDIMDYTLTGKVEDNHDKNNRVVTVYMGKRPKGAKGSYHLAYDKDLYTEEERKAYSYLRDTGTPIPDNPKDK

[8] = tested on: Streptococcus sp. 'group A'; test: Streptococcus pyogenes SK(-)GAS viability under kanamycin – luminescence, BacTiterGlo, confirmation, counter-screen for streptokinase expression inhibitor project, dose response (AID 1900); assay type: functional, organism-based

Sequence of DNA dC->dU-editing enzyme APOBEC-3A (P31941 whole entry): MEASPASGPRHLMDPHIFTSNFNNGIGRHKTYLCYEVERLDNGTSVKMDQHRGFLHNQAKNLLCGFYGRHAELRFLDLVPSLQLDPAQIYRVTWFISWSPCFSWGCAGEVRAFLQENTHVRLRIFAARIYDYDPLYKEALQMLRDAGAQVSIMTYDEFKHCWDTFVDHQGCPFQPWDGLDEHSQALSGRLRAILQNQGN

CCn1c(C)nc2cc(S(=O)(=O)Nc3ccc(C)cc3)ccc21
IC50 [1]: 4.42 µM (active)
IC50 [2]: 4.4 µM (active)

CC/C(=C\c1oc2cc3ccccc3cc2[n+]1CC)Nc1ccccc1
CC50 [3]: > 20 µM (active)
CC50 (Vero): 18.7 µM (active)
CC50 [4]: 16 µM (active)
CC50 [5]: > 20 µM (active)

COc1ccc(NCN2C(=O)C3C4C=CC(C4)C3C2=O)cc1 (stereo unspecified)
IC50 (Large T antigen): 23.2 µM (active)

CC(=O)Nc1ccc(S(=O)(=O)Nc2nc3ccccc3nc2Nc2ccc(O)cc2)cc1
IC50 (Large T antigen): 9.57 µM (active)

CCN1C(NCc2ccc(OC)cc2)=N[C@@H](c2ccccc2)C(C(=O)OC)=C1C
IC50 [1]: 4.07 µM (active)
IC50 [2]: 5.66 µM (active)

CC1C(=O)C(C)C(c2cc(Cl)ccc2O)NC1c1cc(Cl)ccc1O (stereo unspecified)
EC50 [6]: > 32 µM (inactive)
EC50 (Streptococcus): 11.5 µM (active)
EC50 (Protein RecA): 8.24 µM (active)
AC50 [7]: 4.77 µM (active)
EC50 (Streptokinase A): > 150 µM (not active)
EC50 [8]: 1.4 µM (active)
